Legend:
JOSD1 = JOSD1 (Homo sapiens (Human), UniProt Q15040); test: In vitro JOSD1 activity assay (biochemical IC50, purified enzyme); conditions: read-out: JOSD1 IC50
Procedure: In vitro JOSD1 activity assay & Ubiquitin-7-amido-4-methylcoumarin (AMC) assay. In vitro JOSD1 activity assay was carried out with Ubiquitin-AMC assay. […] Recombinant JOSD1 was tested for activity in a Ubiquitin-AMC assay in the presence or absence of inhibitors. […] The reaction was incubated for 6 hours at room temperature prior to the addition of 2 μM Ubiquitin-AMC (Boston Biochem) substrate. The initial rate of the reaction was measured by collecting fluorescence data at one-minute intervals over a 30-minute period using a Clariostar® fluorescence plate reader at excitation and emission wavelengths of 345 and 445 nm, respectively. The calculated initial rate values were plotted against inhibitor concentrations to determine IC50 values.
In vitro JOSD1 activity assay. Recombinant full-length JOSD1 was tested for activity in a Ubiquitin-AMC assay in the presence or absence or inhibitors. For this assay, 10 nM JOSD1 was pre-incubated with different concentrations of inhibitors or DMSO as a control in 50 mM Tris 8.0, 0.5 mM EDTA, 10 mM ovalbumin, 5 mM DTT. The reaction was incubated for 6 h at room temperature prior to the addition of 2 mM Ubiquitin-AMC (Boston Biochem) substrate. The initial rate of the reaction was measured by collecting fluorescence data at one-minute intervals over a 30-minute period using a CLARIOstar® fluorescence plate reader at excitation and emission wavelengths of 345 and 445 nm, respectively. The calculated initial rate values were plotted against inhibitor concentrations to determine IC50 values.
JOSD1 biochemical inhibition was investigated for the analogs shown using the fluorescent substrate ubiquitin-rhodamine against purified enzyme in a continuous kinetic assay.

UCHL1 = UCHL1 (Homo sapiens (Human), UniProt P09936); test: UCHL1 biochemical inhibition (ubiquitin hydrolase activity, purified enzyme)
[1] = test system: JAK2-V617F-positive primary AML patient samples; test: AML liquid culture proliferation, primary patient samples; format: cell-based, human; conditions: 1 μM
Excerpt: AML liquid culture proliferation and colony assay studies. Frozen vials of bone marrow from AML patients identified as harboring JAK2-V617F were previously Ficoll®-purified to obtain mononuclear cells and thawed prior to use in studies.

Chain of UCHL1 (P09936 whole entry, species assumed): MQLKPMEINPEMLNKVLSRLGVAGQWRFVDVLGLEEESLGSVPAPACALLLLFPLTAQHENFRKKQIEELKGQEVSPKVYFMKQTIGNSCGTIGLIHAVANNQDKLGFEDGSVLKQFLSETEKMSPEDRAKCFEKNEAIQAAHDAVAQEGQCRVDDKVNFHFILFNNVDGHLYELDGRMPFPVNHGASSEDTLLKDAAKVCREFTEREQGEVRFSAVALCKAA

Row | IC50 (JOSD1) [nM] | IC50 (UCHL1) [nM] | SMILES | efficacy against primary AML cells [1]
1 | 1100 | 100 | N#CN1CCC(C(=O)Nc2nc3c(s2)CN(C(=O)c2ccccc2)CC3)C1 (centres unmarked) [Compound 26] | 
2 | 11300 | 100000 | N#CN1CC(CNC(=O)c2nc3ccccc3s2)C1 [Compound 46, N-((1-cyanoazetidin-3-yl)methyl)benzo[d]thiazole-2-carboxamide] | 
3 | 1370 | 3670 | N#CN1CC[C@H](C(=O)Nc2nc3ccccc3[nH]2)C1 [Compound 30, (S)—N-(1H-benzo[d]imidazol-2-yl)-1-cyanopyrrolidine-3-carboxamide] | 
4 | 4150 | 89 | N#CN1CC[C@H](C(=O)Nc2cn(C3CCCN(C(=O)c4ccccc4)C3)cn2)C1 (some centres unmarked) [Compound 38] | 
5 | 3370 | 1340 | N#CN1CC[C@H](C(=O)Nc2nc3n(n2)CCN(C(=O)c2ccccc2)C3)C1 [Compound 36] | 
6 |  |  | N#CC[C@H](C1CCCC1)n1cc(-c2ncnc3[nH]ccc23)cn1 [ruxolitinib, reference compound] | at best modest efficacy
7 | 1220 | 155 | N#CN1CC[C@H](C(=O)Nc2cn(-c3ccccc3)cn2)C1 [Compound 28] | 
8 | 690 | 1850 | Cc1noc(C)c1-c1ccc2nc(NC(=O)[C@@H]3CCN(C#N)C3)sc2c1 [Compound 24] | 
9 | 430 | 2060 | N#CN1CC[C@H](NC(=O)c2nc3ccccc3s2)C1 [Compound 20] | 
10 | 6070 | 100000 | N#CN1CCc2cc(NC(=O)c3nc4ccccc4s3)ccc21 [Compound 41] | 
11 | 420 | 90 | Cc1noc(C)c1-c1ccc2nc(NC(=O)[C@H]3CCN(C#N)C3)sc2n1 [Compound 19] | 
12 | 6230 | 1080 | N#CN1CCC[C@H](C(=O)Nc2cn(Cc3ccccc3)cn2)C1 [Compound 42] | 
13 | 931 | 8900 | N#CN1CC[C@H](C(=O)Nc2ccn(Cc3ccccc3)c2)C1 [Compound 25] | 
14 | 244 | 100 | Cc1noc(C)c1-c1ccc2nc(NC(=O)[C@H]3CCN(C#N)C3)sc2c1 [Compound 12] | 
15 | 1400 | 2690 | N#CN1CC[C@H](C(=O)Nc2nc3n(n2)CCN(Cc2ccccc2)C3)C1 [Compound 31] | 
16 | 1950 | 1830 | N#CN1CC(C(=O)Nc2nc3ccc(Br)cc3s2)C1 [Compound 33, N-(6-bromobenzo[d]thiazol-2-yl)-1-cyanoazetidine-3-carboxamide] | 
17 | 2770 | 420 | Cc1noc(C)c1-c1ccc2nc(NC(=O)C3CCN(C#N)CC3)sc2c1 [Compound 35, 1-Cyano-N-(6-(3,5-dimethylisoxazol-4-yl)benzo[d]thiazol-2-yl)piperidine-4-carboxamide] | 
18 | 5680 | 100000 | Cc1noc(C)c1-c1ccc2nc(NC(=O)[C@H]3CCN(CC#N)C3)sc2c1 [Compound 40, (S)-1-(cyanomethyl)-N-(6-(3,5-dimethylisoxazol-4-yl)benzo[d]thiazol-2-yl)pyrrolidine-3-carboxamide] | 

Source: patent publication US20240335427A1, “SMALL MOLECULE INHIBITION OF DEUBIQUITINATING ENZYME JOSEPHIN DOMAIN CONTAINING 1 (JOSD1) AS A TARGETED THERAPY FOR LEUKEMIAS WITH MUTANT JANUS KINASE 2 (JAK2)” (DANA-FARBER CANCER INSTITUTE, INC., priority 2021, published 2024)
